Values of other authors in patent CN117800914A, “一种抗SARS-CoV-2病毒奥密克戎突变种抑制剂” (Second Military Medical University SMMU, priority 2023, dated 2024).

System: COVID-19
Conditions: early use, cited from earlier work

Compound	reduction of risk of severe COVID-19 [%]	reduction of risk of hospitalization/death (in words) (mild to moderate patients at risk of progression)
CCC(CC)COC(=O)[C@H](C)N[P@](=O)(OC[C@H]1O[C@@](C#N)(c2ccc3c(N)ncnn23)[C@H](O)[C@@H]1O)Oc1ccccc1 [瑞德西韦]	87	–
CC(C)C(=O)OC[C@H]1O[C@@H](n2ccc(NO)nc2=O)[C@H](O)[C@@H]1O [莫那匹韦]	–	可降低住院/死亡风险
